Measured values as given in the METLIN SMRT retention time set (Domingo-Almenara et al. 2019).

assay: gradient 5% acetonitrile 3 min, to 50% in 2 min, to 85% in 15 min, held 3 min, 100 µL/min; conditions: column: Zorbax Extend-C18 2.1 x 50 mm; eluents: water / acetonitrile, 0.1% formic acid
Procedure, shortened: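 The mobile phases were water and acetonitrile, each with 0.1% formic acid, pumped at 100 μL/min through a Zorbax Extend-C18 column (2.1 × 50 mm, 1.8 μm). Pure standards were injected as mixtures of ~100 molecules and detected by a quadrupole time-of-flight mass spectrometer in positive and negative ionization mode. Retention time came from computationally picked adduct peaks, each inspected by hand.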

Structure (SMILES)	RP-LC retention time [s]
CCn1c(N2CCCC(C(=O)NCCOC)C2)cc(=O)n(C)c1=O (centres undefined)	646
CC1CCCCN1CCCNC(=O)c1cc(S(=O)(=O)N2CCCC2)ccc1Cl (centres undefined)	643
O=C(NCCN1CCCCCC1)C1CCN(c2cnn(Cc3ccccc3)c(=O)c2)CC1	614
O=C(Cc1cccs1)Nc1cccc2ccc(-n3ccnc3)nc12	610
CCOC(=O)c1ccc(NC(=O)CSc2nnc(-c3cccn(CC)c3=O)n2C)cc1	794
COc1cccc(Cn2nnc(C(=O)O)c2-c2cccc(OC)c2)c1	782
O=C(C1=CN(c2ccc(Cl)cc2)c2ccccc2S1(=O)=O)N1CCCC1	827
O=C(NCCn1nnc2cc(C(=O)N3CCCC3)ccc21)Nc1ccccc1Cl	892
O=C(NCc1ccccc1C(F)(F)F)C1CCN(c2cncnc2N2CCOCC2)CC1	644
Cc1cc(N2CCCCC2)nc(N2CCN(S(=O)(=O)c3ccc(Br)cc3)CC2)n1	847
COC(=O)c1c(C)oc2ccc(OCC(=O)c3ccc(F)cc3)cc12	999
Cc1cccc(-c2ncccc2CNS(=O)(=O)c2cccc(F)c2)c1	724
O=C(N[C@@H]1CN(c2ccncn2)C[C@H]1CO)c1nccc2ccccc12	581
Cc1nnc2ccc(-c3noc(Cc4ccccc4Br)n3)cn12	838
CCc1nn(C)c(=O)c2cc(S(=O)(=O)NCc3ccc(F)cc3Cl)cn12	916
O=C(NC1CC1)C1CCc2sc(C(=O)N3CCCC3)cc2C1 (centres undefined)	654
Cc1ccc(-n2c(=O)c3sccc3n(Cc3nc(-c4ccc(F)cc4)no3)c2=O)cc1	1030
CCn1cc(-c2ccc(C)cc2)cc1C(=O)N1CCC2(CC1)OCCO2	1000
Cc1ccc(NS(=O)(=O)c2cc3c(s2)CCN(C(=O)C2CCC2)C3)cc1Cl	1010

Structure (SMILES)	RP-LC retention time [s]
CCc1ccc(NC(=O)c2ccc(=O)n(CCN3CCOCC3)c2)cc1	637
O=C(CN1C(=O)CC(c2cccs2)=Nc2ccccc21)Nc1ccccc1F	910
Clc1c(Cl)c(Cl)c2n[nH]nc2c1Cl	962
CC(C)NC(=O)Cn1nc2c3cc(-c4ccc(C(C)C)cc4)nn3ccn2c1=O	911
COc1ccccc1CNC(=O)c1c(C)sc2ccn(CC(C)C)c(=O)c12	989
O=C(NC1CCCCC1)c1csc(-c2ccc(N3CCOCC3)nc2)n1	916
CCN1CCn2cc(S(=O)(=O)Nc3ccc(Cl)cc3F)cc2C1=O	752
CCCN1C(=O)C(CC(=O)N2CCN(C)CC2)Sc2ncccc21 (centres undefined)	576
COc1cc(C(=O)NCCNc2cc(-n3cccn3)ncn2)cc(OC)c1OC	631
COc1cc(-c2nc(-c3ccc4c(c3)nnn4C)no2)cc(OC)c1OC	937
CCn1cc(S(=O)(=O)Nc2cc(C)ccc2C)c2cccnc21	892
COc1ccc(C(=O)c2cccc(N)c2)cc1OC	630
CCCC(=O)Nc1ccc2c(c1)nc(CN1CCCC1)n2C(C)C	586
Cc1nc(OCC(=O)Nc2ccc(F)cc2)c2ccccc2n1	709
O=C(Nc1cnc(-c2cccnc2)nc1)C1CCCCC1	681
COC(=O)c1cnc2nc(C)ccc2c1Nc1cc(OC)cc(OC)c1	735
CC1CS(=O)(=O)N(c2ccc(C(=O)N3CCN(c4ccccn4)CC3)cc2)C1=O (centres undefined)	554
Cc1ccc(NC(=O)N2CCc3nc[nH]c3C2)cc1F	606
Cc1onc(-c2ccccc2Cl)c1C(=O)NCC1(c2cccs2)CC1	950

Structure (SMILES)	RP-LC retention time [s]
CCn1c(C(=O)NC(C)CCc2ccccc2)cc2sccc21 (centres undefined)	1110
CC(=O)c1ccc(NC(=O)c2cc(C)nc3ccccc23)cc1	644
CSc1ccc(CNC(=O)CCc2c(-c3ccc(Br)cc3)nc3ccccn23)cc1	714
COc1ccc2cc(C(=O)Nc3ccc(F)cc3C)[nH]c2c1	806
CC(NC(=O)C1=C2CCCN2c2ccc(F)cc2S1(=O)=O)c1ccc(F)cc1 (centres undefined)	935
CN(CCNC(=O)C1CCCN(c2ncnc3c2nc2n3CCCCC2)C1)C1CCCCC1 (centres undefined)	612
Cn1nccc1C(=O)N1CC(c2nc(CCOCC3CCCC3)no2)C1	824
COCCn1cc(CCNC(=O)Nc2cc(Cl)cc(Cl)c2)c2cccnc21	893
CNC(=O)[C@@H]1CN(C(=O)c2cc(C3CC3)[nH]n2)C[C@H]1c1n[nH]c(C)n1	577
CC(=O)Nc1nonc1-c1nnc(SCC(=O)Nc2nc(-c3ccccc3)cs2)n1C	833
COc1ccc(CNC(=O)c2cn(C)nc2S(=O)(=O)N2CCSCC2)c(OC)c1	855
COc1ccc(N2COc3ccc4c(c3C2)O/C(=C\c2ccco2)C4=O)cc1	700
COc1cccc(S(=O)(=O)N2CC(F)(F)C[C@H]2c2nnc(C)o2)c1	785
Cc1ccc(NC(=O)C2CCCN(c3ccc4cc(S(=O)(=O)N5CCCCC5)ccc4n3)C2)cc1 (centres undefined)	917
CC(C)CCN1CC(=O)N(Cc2ccc(N3CCOCC3)cc2)C(c2cccs2)C1=O (centres undefined)	836
O=C(Cn1nc2c(Oc3cccc(F)c3)nccn2c1=O)Nc1ccccc1C(F)(F)F	870
COc1ccc(OC)c(NC(=O)NC(C(=O)N2CCc3ccccc32)C(C)C)c1 (centres undefined)	984
Cn1c(C2CCN(S(=O)(=O)c3ccccc3Cl)CC2)cc(=O)n2nccc12	708

The remaining lines, values ahead:

RP-LC retention time [s]	Structure (SMILES)
625	Cc1ccc(NC(=O)CN2C(=O)COc3ccc(C(=O)N4CCCC4)cc32)nc1
681	COc1ccccc1NC(=O)Cn1cnc2nc(N3CCCC(C(=O)NC4CC4)C3)sc2c1=O (centres undefined)
812	Cc1cccc(N2CCN(C(=O)CN3C(=O)CN(C)C(=O)c4ccccc43)CC2)c1C
656	CCOC(=O)Cc1ccc(NC(=O)N2CCN(c3nc4ccccc4n3C)CC2)cc1
782	COc1ccc(CC(=O)N2CCC3(C2)C(=O)N(C)c2ccccc23)cc1 (centres undefined)
724	CCN1CCCn2cc(S(=O)(=O)Nc3cccc(C)c3)cc2C1=O
669	Cc1ccc2c(c1)N(C)N=C(C(=O)N1CCOCC1)S2(=O)=O
671	O=C(Cn1c(=O)oc2ccccc21)NCC1CCN(C(=O)c2ccccc2F)CC1
1090	CCc1ccc(Oc2cc(N3CCC(C(=O)NCC(C)c4ccccc4)CC3)ncn2)cc1 (centres undefined)
696	COc1ccc(OC)c(NC(=O)Nc2c(-c3cccc(C)c3)nc3ccccn23)c1
990	CS(=O)(=O)N1CCC(C(=O)Nc2ccc(Br)cc2F)Oc2ccccc21 (centres undefined)
660	COC(=O)c1ccc2c(=O)n(-c3ccc4c(c3)OCO4)c(N3CCN(c4ccccn4)CC3)nc2c1
826	CCOc1cccc2c1OC1(CCN(C(C)=O)CC1)N1N=C(c3ccc4c(c3)OCO4)CC21 (centres undefined)
588	CCCc1nc2cccnc2n1C1CCN(C(=O)c2ccc(OC)nc2)C1 (centres undefined)
903	CCN(C(=O)C1CCCN(c2ncnc3c2nc2n3CCCCC2)C1)c1cccc(C)c1 (centres undefined)
1030	COc1ccc(-c2noc(CN3C(=O)COc4cc(C)ccc43)n2)cc1
720	N#Cc1cccc(N2C=C(C(=O)N3CCCC3)S(=O)(=O)c3ccccc32)c1

RP-LC retention time [s]	Structure (SMILES)
631	O=C(c1ccco1)N1CCC2(CC1)NCCc1c2[nH]c2ccccc12
698	CCOC(=O)c1c(C)oc2ncnc(NCC3CCN(Cc4ccc(F)cc4)CC3)c12
1000	Cc1nc(-c2csc(S(=O)(=O)N3CCC(C(=O)N4CC=C(c5ccccc5)CC4)CC3)c2)no1
856	CCn1cc(-c2ccc(C)cc2)cc1C(=O)NCCCN1CCCC1=O
895	Cc1cc(C)cc(Nc2c(-c3ccc(N4CCOCC4)cc3)nc3cnccn23)c1
564	O=C(COc1cccc2ccc(N3CCOCC3)nc12)NCC1CCCO1 (centres undefined)
837	COc1ccc(CNC(=O)C2CCCN(c3ccc(=O)n(-c4ccc(C)c(Cl)c4)n3)C2)cc1OC (centres undefined)
729	CNC(=O)CN1c2ccccc2NC2=C(C(=O)CC(C)(C)C2)C1c1ccc(OC)cc1 (centres undefined)
689	Cc1ccc(C)c(N2CCN(C(=O)c3cn4c(n3)CCCC4)CC2)c1
823	Cc1cc(OCC(=O)Nc2ccc(F)cc2)nc(N2CCN(c3ccccc3)CC2)n1
758	CN(Cc1ccccc1)C(=O)C1CCCN(c2ncnc3c2nc2n3CCCCC2)C1 (centres undefined)
752	COc1ccc(-c2noc(C3CCCN3C(=O)c3ccc(NC(C)=O)cc3)n2)cc1 (centres undefined)
960	Cc1cccc(NC(=O)C2CCCN(c3ccc(=O)n(-c4cccc(Cl)c4)n3)C2)c1C (centres undefined)
968	Cc1cc(N2CCCC2)n2nc(-c3ccc(C(C)(C)C)cc3)nc2n1
731	O=C(NCc1ccccc1F)C1CCc2nc(N3CCOCC3)ncc2C1 (centres undefined)
918	Cc1nc(-c2noc(-c3ccc(F)cc3)n2)cn1CC(=O)Nc1cccc(Cl)c1
